# Assays:
# Assay type in all cases: in vivo
# [1] = tested on: Echinochloa crusgalli; test: Seedling stage sealing experiment for water-seeding; conditions: 120 g a.i./ha, 15 days, fresh weight control rate
# From the text: (§1) The activity level criteria for plant damage (i.e., growth control rate) are as follows: • Level 9: completely dead; • Level 8: growth control rate greater than or equal to 90% and less than 100%; • Level 7: growth control rate greater than or equal to 80% and less than 90%; • Level 6: growth control rate greater than or equal to 70% and less than 80%; • Level 5: growth control rate greater than or equal to 50% and less than 70%; • Level 4: growth control rate greater than or equal to 30% and less than 50%; • Level 3: growth control rate greater than or equal to 20% and less than 30%; • Level 2: growth control rate greater than or equal to 10% and less than 20%; • Level 1: growth control rate less than 10%; • Level 0: no effect.
# (§2) The above growth control rates are fresh weight control rates.
# (§3) Echinochloa phyllopogon, Digitaria sanguinalis, Huaidao (rice cultivar), etc. were broadcasted on the surface of nutrition bowls filled with soil and fully covered by soil. The foregoing well-prepared nutrition bowls were then placed in a cultivation box with water filled to a suitable height to keep the soil in the nutrition bowls moist. A test compound of the present invention was individually dissolved with acetone, then diluted into solution of a certain concentration using a certain amount of water, and sprayed using a spray tower. The plants were placed on a greenhouse seedbed and cultured for 15 days, and the experimental results were then collected. The compound was applied at 120, 60, 30 and 15 g a.i./ha in triplicate, and the results were averaged.
# [2] = tested on: Echinochloa phyllopogon; test: as above; conditions: 120 g a.i./ha, 15 days, fresh weight control rate
# From the text: as §1, §2, §3
# [3] = tested on: Huaidao (rice cultivar); test: Seedling stage sealing experiment for water-seeding (crop safety); conditions: 120 g a.i./ha, 15 days, fresh weight control rate; for Huaidao (rice cultivar) plant damage level (growth control rate): spray, seedling stage sealing for water-seeding; for Huaidao (rice cultivar) plant damage level: seedling stage sealing
# From the text: as §1, §2, §3
# [4] = spray, seedling stage sealing for water-seeding
Compound,"Echinochloa crusgalli activity level (growth control rate) [1, 4]","Echinochloa phyllopogon activity level (growth control rate) [2, 4]",Huaidao (rice cultivar) plant damage level (growth control rate) [3],Echinochloa crusgalli activity level (growth control rate) ([1]; seedling stage sealing),Echinochloa phyllopogon activity level (growth control rate) ([2]; seedling stage sealing),Huaidao (rice cultivar) plant damage level [3]
Cc1cc(C)cc([C@H]2CN(C)C(=O)[C@@H]2C(=O)Nc2cnn(C)c2S(C)(=O)=O)c1 [498′],9,9,0,,,
COc1cc([C@H]2CN(C)C(=O)[C@@H]2C(=O)Nc2cnn(C(F)F)c2Cl)cc(C(F)(F)F)c1 [445′],9,9,0,,,
Cc1cc(C)cc([C@H]2CN(C)C(=O)[C@@H]2C(=O)N(C)c2cnn(C)c2Cl)c1 [490′],9,,0,,,
Cc1cccc([C@H]2CN(C)C(=O)[C@@H]2C(=O)Nc2cnn(C)c2Br)c1 [389′],,,,9,9,0
CN1CC(c2csc3ccccc23)C(C(=O)Nc2cnn(C)c2Cl)C1=O (stereo not shown) [Compound 359],,,,,7 (Level 7: growth control rate greater than or equal to 80% and less than 90%),0
CN1C[C@H](c2cc(Br)cc(C(F)F)c2)[C@@H](C(=O)Nc2cnn(C)c2C2CC2)C1=O [513′],9,,0,,,
CCCn1ncc(NC(=O)[C@H]2C(=O)N(C)C[C@@H]2c2cccc(C)c2)c1Cl [462′],9,9,0,,,
Cc1c(NC(=O)[C@H]2C(=O)N(C)C[C@@H]2c2cccc(C(F)(F)F)c2)cnn1C [189′],,,,9,9,0
Cc1cc(Cl)cc([C@H]2CN(C)C(=O)[C@@H]2C(=O)Nc2cnn(C(F)F)c2Cl)c1 [505′],9,9,2 (Level 2: growth control rate greater than or equal to 10% and less than 20%),,,
Cc1cc(C)cc([C@H]2CN(C)C(=O)[C@@H]2C(=O)Nc2cnn(C)c2C(F)(F)C(F)(F)F)c1 [428′],,,,6 (Level 6: growth control rate greater than or equal to 70% and less than 80%),,0
Cc1cc(C)cc([C@H]2CN(C)C(=O)[C@@H]2C(=O)Nc2cnn(C(C)(C)C)c2Cl)c1 [267′],,,,6 (Level 6: growth control rate greater than or equal to 70% and less than 80%),,0
COCCn1ncc(NC(=O)[C@H]2C(=O)N(C)C[C@@H]2c2cc(C)cc(C)c2)c1Cl [423′],,,,9,6 (Level 6: growth control rate greater than or equal to 70% and less than 80%),0
CN1C[C@H](c2cc(Cl)cc(Cl)c2)[C@@H](C(=O)Nc2cnn(C)c2C2CC2)C1=O [443′],9,8 (Level 8: growth control rate greater than or equal to 90% and less than 100%),0,,,
CN1C[C@H](c2cc(F)cc(F)c2)[C@@H](C(=O)Nc2cnn(C)c2C(F)(F)F)C1=O [489′],9,9,0,,,
Cc1cc(C)cc([C@H]2CN(C)C(=O)[C@@H]2C(=O)Nc2cnn(C(F)F)c2C)c1 [494′],9,9,2 (Level 2: growth control rate greater than or equal to 10% and less than 20%),,,
Cc1cc(C)cc([C@H]2CN(C)C(=O)[C@@H]2C(=O)Nc2cnn(C)c2F)c1 [271′],,,,9,9,0
Cc1ccc([C@H]2CN(C)C(=O)[C@@H]2C(=O)Nc2cnn(C(F)F)c2Cl)cc1 [486′],9,9,2 (Level 2: growth control rate greater than or equal to 10% and less than 20%),,,
CN1C[C@H](c2cc(Cl)c(Cl)c(C(F)(F)F)c2)[C@@H](C(=O)Nc2cnn(C)c2Cl)C1=O [326′],,,,8 (Level 8: growth control rate greater than or equal to 90% and less than 100%),7 (Level 7: growth control rate greater than or equal to 80% and less than 90%),0
CC(C)n1ncc(NC(=O)[C@H]2C(=O)N(C)C[C@@H]2c2cccc(C(F)(F)F)c2)c1Cl [97′],,,,9,9,0

Compound,"Echinochloa crusgalli activity level (growth control rate) [1, 4]","Echinochloa phyllopogon activity level (growth control rate) [2, 4]",Huaidao (rice cultivar) plant damage level (growth control rate) [3],Echinochloa crusgalli activity level (growth control rate) ([1]; seedling stage sealing),Echinochloa phyllopogon activity level (growth control rate) ([2]; seedling stage sealing),Huaidao (rice cultivar) plant damage level [3]
Cc1cccc([C@H]2CN(C)C(=O)[C@@H]2C(=O)Nc2cnn(C(C)(C)C)c2Cl)c1 [384′],,,,6 (Level 6: growth control rate greater than or equal to 70% and less than 80%),,0
C=C(C)c1cccc([C@H]2CN(C)C(=O)[C@@H]2C(=O)Nc2cnn(C)c2Cl)c1 [150′],,,,6 (Level 6: growth control rate greater than or equal to 70% and less than 80%),,0
COc1cc([C@H]2CN(C)C(=O)[C@@H]2C(=O)Nc2cnn(C)c2Cl)cc(OC)c1OC [449′],6 (Level 6: growth control rate greater than or equal to 70% and less than 80%),,0,,,
CN1C[C@H](c2cccc(C3CC3)c2)[C@@H](C(=O)Nc2cnn(C)c2Cl)C1=O [151′],,,,,9,0
Cc1cc(C)cc([C@H]2CN(C)C(=O)[C@@H]2C(=O)Nc2cnn(C)c2-c2cscn2)c1 [551′],9,,0,,,
Cc1cc(C2CC2)cc([C@H]2CN(C)C(=O)[C@@H]2C(=O)Nc2cnn(C)c2Cl)c1 [289′],,,,,9,0
CN1C[C@H](c2cccc(C(F)(F)F)c2)[C@@H](C(=O)Nc2cnn(C)c2C(N)=O)C1=O [482′],9,,0,,,
Cc1cccc([C@H]2CN(C)C(=O)[C@@H]2C(=O)Nc2cnn(C)c2[S+](C)[O-])c1 (stereo partly shown) [530′],9,,0,,,
Cc1cc(C)cc([C@H]2CN(C)C(=O)[C@@H]2C(=O)Nc2cnn(C)c2)c1 [274′],,,,7 (Level 7: growth control rate greater than or equal to 80% and less than 90%),,0
CN1C[C@H](c2cccc(Oc3ccc(F)cn3)c2)[C@@H](C(=O)Nc2cnn(C)c2Cl)C1=O [52′],,,,9,,0
Cc1cc(C)cc([C@H]2CN(C)C(=O)[C@@H]2C(=O)Nc2cnn(C(C)C)c2C2CC2)c1 [278′],,,,6 (Level 6: growth control rate greater than or equal to 70% and less than 80%),,0
Cc1cc(C)cc([C@H]2CN(C)C(=O)[C@@H]2C(=O)N(CC2CC2)c2cnn(C)c2Cl)c1 [367′],,,,9,,1 (Level 1: growth control rate less than 10%)
CCc1cc(C)cc([C@H]2CN(C)C(=O)[C@@H]2C(=O)Nc2cnn(C)c2Cl)c1 [287′],,,,,9,0
Cc1cc(C)cc(C2CN(C)C(=O)C2C(=O)Nc2cnn(C)c2N(C)C)c1 (stereo not shown) [Compound 499],8 (Level 8: growth control rate greater than or equal to 90% and less than 100%),,0,,,
CN1CC(c2cccc(C(F)(F)F)c2)C(C(=O)Nc2cnn(C)c2CF)C1=O (stereo not shown) [Compound 477],9,,0,,,
Cc1cc(C)cc([C@H]2CN(C)C(=O)[C@@H]2C(=O)Nc2cnn(C)c2C2=CCCC2)c1 [280′],,,,6 (Level 6: growth control rate greater than or equal to 70% and less than 80%),,0
Cc1cccc([C@H]2CN(C)C(=O)[C@@H]2C(=O)Nc2cnn(C(=O)OC(C)(C)C)c2Cl)c1 [463′],6 (Level 6: growth control rate greater than or equal to 70% and less than 80%),,0,,,
Cc1cc([C@H]2CN(C)C(=O)[C@@H]2C(=O)Nc2cnn(C(F)F)c2Cl)cc(C)c1C [515′],9,9,,,,

# Reference: US20260223850A1, “SUBSTITUTED PYRROLIDONE COMPOUND, PREPARATION METHOD THEREFOR, COMPOSITION AND APPLICATION THEREOF” (QINGDAO KINGAGROOT CHEMICAL COMPOUND CO., LTD., priority 2023, published 2026)
